PubChem BioAssay (NCI)
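Test compounds were applied to cells in 96-well plates for 48 hours at 5 doses. GI50 marks 50% less growth. TGI denotes the concentration required for complete inhibition of growth.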

How the values were obtained:
Experiment in all cases: NCI-60 cell line screen, 48 h
LXFL 529 NSCLC = tested on: LXFL 529 NSCLC
RXF 393 renal = tested on: RXF 393 renal
ACHN renal = tested on: ACHN renal
SF-268 CNS = tested on: SF-268 CNS
DLD-1 colon = tested on: DLD-1 colon
A498 renal = tested on: A498 renal
MOLT-4 leukemia = tested on: MOLT-4 leukemia
NCI-H460 lung = tested on: NCI-H460 lung
MDA-MB-435 = tested on: MDA-MB-435

SMILES | TGI (LXFL 529 NSCLC) [µM] | TGI (RXF 393 renal) [µM] | TGI (ACHN renal) [µM] | TGI (SF-268 CNS) [µM] | TGI (DLD-1 colon) [µM] | TGI (A498 renal) [µM] | TGI (MOLT-4 leukemia) [µM] | TGI (NCI-H460 lung) [µM] | TGI (MDA-MB-435) [µM] | GI50 (LXFL 529 NSCLC) [µM] | GI50 (RXF 393 renal) [µM] | GI50 (ACHN renal) [µM] | GI50 (SF-268 CNS) [µM] | GI50 (DLD-1 colon) [µM] | GI50 (A498 renal) [µM] | GI50 (MOLT-4 leukemia) [µM] | GI50 (NCI-H460 lung) [µM]
ClC[Si]12OCCN(CCO1)CCO2 | > 100 | > 100 | > 100 | > 100 | > 100 | > 100 | > 100 | > 100 | – | – | – | – | – | – | – | – | –
CN(C)/C=N/c1nc2ncn(CCOC(=O)c3ccccc3)c2c(=O)[nH]1 | > 100 | > 100 | > 100 | > 100 | > 100 | > 100 | – | > 100 | – | – | – | – | – | – | – | – | –
N#CC1=C(c2ccccc2)C(O)(c2ccccc2)NC1=O (stereo unspecified) | > 100 | > 100 | > 100 | > 100 | > 100 | 60.6 | > 100 | > 100 | – | – | – | – | – | – | – | – | –
CC(Oc1ccc2cc(C(=O)c3ccccc3)c(=O)oc2c1)C(=O)O (stereo unspecified) | > 100 | > 100 | > 100 | > 100 | – | > 100 | > 100 | > 100 | – | – | – | – | – | – | – | – | –
COc1ccc(C(=O)O)c(Cc2ccc3ccccc3c2)c1 | > 100 | > 100 | > 100 | > 100 | > 100 | > 100 | > 100 | > 100 | – | – | – | – | – | – | – | – | –
O=C1C(N2C(=O)c3ccccc3C2=O)CN1C(COCc1ccccc1)c1ccc(OCc2ccccc2)cc1 (stereo unspecified) | > 100 | > 100 | > 100 | > 100 | > 100 | > 100 | > 100 | > 100 | – | – | – | – | – | – | – | – | –
c1ccc(C2N3CCCCC3[C@@H]3c4[nH]c5ccccc5c4CCN23)cc1 (stereo partly specified) | > 100 | > 100 | > 100 | > 100 | > 100 | 63.6 | > 100 | > 100 | – | – | – | – | – | – | – | – | –
COc1ccc(/C(C)=N/NC(N)=S)c(OC)c1 | > 100 | > 100 | > 100 | > 100 | > 100 | > 100 | > 100 | > 100 | – | – | – | – | – | – | – | – | –
C=C1C(=O)OC2/C=C(\C)C3OC3/C=C(/C(=O)OC)C(OC(C)=O)C(OC(=O)C(C)(O)C(C)OC(C)=O)C12 (stereo unspecified) | 2.36 | 1.35 | 18.2 | 34.1 | 7.52 | 11.5 | 3.68 | 13.3 | 4.84 | – | – | – | – | – | – | – | –
COc1cc(-c2cc(CCC(=O)Nc3ccccc3[N+](=O)[O-])n(-c3ccc([N+](=O)[O-])cc3[N+](=O)[O-])n2)ccc1O | > 100 | > 100 | > 100 | > 100 | > 100 | > 100 | > 100 | > 100 | – | > 10 | > 100 | > 10 | > 100 | > 100 | > 100 | > 100 | > 100
Cc1cccc(NC(=O)CC#N)c1Cl | > 100 | – | > 100 | > 100 | > 100 | – | > 100 | – | – | – | – | – | – | – | – | – | –
CC1(C)OC(=O)C(=C2CC(c3ccccc3)c3ccccc32)C(=O)O1 (stereo unspecified) | > 100 | > 100 | > 100 | > 100 | > 100 | > 100 | > 100 | > 100 | – | – | – | – | – | – | – | – | –
BrC12c3ccccc3Sc3ccccc3C1(Br)c1ccccc12 (stereo unspecified) | 59.7 | > 100 | > 100 | > 100 | > 100 | 70.7 | 35.8 | > 100 | – | – | – | – | – | – | – | – | –
CC1=C(C(=O)Nc2ccccc2C)C(c2ccc(C3C(C(=O)Nc4ccccc4C)=CNC=C3C(=O)Nc3ccccc3C)cc2)C(C(=O)Nc2ccccc2C)=C(C)N1 | 26.6 | 85.1 | 30.6 | 17.4 | 37.4 | 41.7 | > 40.3 | 48 | – | – | – | – | – | – | – | – | –
CC(=O)OCC1OC(Sc2ccccn2)C=CC1OC(C)=O (stereo unspecified) | > 100 | > 100 | > 100 | > 100 | > 100 | > 100 | > 100 | – | – | – | – | – | – | – | – | – | –
Oc1cc2c(cc1O)-c1[nH]ncc1CC2 | > 100 | – | > 100 | > 100 | > 100 | 95.8 | 88.8 | > 100 | – | – | – | – | – | – | – | – | –
CC(C)CC(=O)NS(=O)(=O)c1ccccc1 | > 100 | > 100 | > 100 | > 100 | > 100 | > 100 | > 100 | > 100 | – | – | – | – | – | – | – | – | –
CC1=C(c2cc(C(=O)Nc3nccs3)nc(NC#N)n2)Sc2ccccc2N1 | > 100 | – | > 100 | > 100 | > 100 | > 100 | > 100 | > 100 | – | – | – | – | – | – | – | – | –
CN(C)/C(N)=N/C(N)=S | > 100 | > 100 | > 100 | > 100 | > 100 | > 100 | > 100 | > 100 | – | – | – | – | – | – | – | – | –
O=C(c1ccc2c3c(ccc(C(=O)C(F)(F)F)c13)CC2)C(F)(F)F | > 100 | > 100 | > 100 | > 100 | > 100 | > 100 | > 100 | > 100 | – | – | – | – | – | – | – | – | –
CCC(/C(=N\Nc1c(Cl)cc(Cl)cc1Cl)c1ccccc1)n1ccnc1C (stereo unspecified) | 25.8 | – | 19.5 | 47.2 | 17.2 | 29.2 | 37.1 | 29.4 | – | – | – | – | – | – | – | – | –
O=C(O)C1OC(Oc2cc(O)c3c(=O)cc(-c4ccc(O)cc4)oc3c2)C(O)C(O)C1O (stereo unspecified) | > 100 | – | > 100 | > 100 | > 100 | – | – | > 100 | – | – | – | – | – | – | – | – | –
CCC/C(=N\NC(=O)c1cc2ccccc2cc1O)C(CC)C(=O)CCC(=O)N(Cc1ccccc1)Cc1ccccc1 (stereo unspecified) | > 100 | > 100 | > 100 | > 100 | > 100 | > 100 | > 100 | > 100 | – | – | – | – | – | – | – | – | –
